Source: ChEMBL document CHEMBL5576037, “Discovery of the first ataxia telangiectasia and Rad3-related (ATR) degraders for cancer treatment” (Eur J Med Chem, 2024)
Active and inactive are the calls of the source. The rule behind the calls is not given here.

Legend:
LoVo [1] = experiment: Cell cycle arrest in human LoVo cells assessed as accumulation of cells at G0/G1 phase at 0.5 uM incubated for 72 hrs by PI staining based flow cytometric analysis (reference value: 52.3 %); assay type: functional
LoVo [2] = experiment: Induction of apoptosis in human LoVo cells assessed as apoptotic rate at 1 uM incubated for 48 hrs by Annexin V-FITC/PI staining based flow cytometric analysis (reference value: 5.32 %); assay type: functional
[3] = Toxicity in BALB/c nude mouse xenografted with human LoVo cells assessed as body weight loss at 12.5 to 25 mg/kg, ip administered twice daily for 15 days; assay type: organism-based; conditions: in vivo, 360 h, dose 12.5-25 mg/kg, time 15 day
[4] = molecular target: Serine/threonine-protein kinase ATR (Homo sapiens, UniProt Q13535); experiment: Inhibition of ATR phosphorylation at Thr1989 residue in human LoVo cells incubated for 72 hrs by Western blot analysis; assay type: cell-based; conditions: dose 0.16-10 µM
LoVo [5] = experiment: Synergistic antitumor activity against human LoVo cells xenografted in BALB/c nude mouse assessed as tumor growth inhibition at 12.5 mg/kg, ip administered once daily for 15 days in presence of cisplatin relative to control; assay type: functional; conditions: 360 h, time 15 day, read-out: TGI
[6] = molecular target: T1, Serine/threonine-protein kinase Chk1 (Homo sapiens) (UniProt O14757); experiment: Induction of CHK1 degradation in human LoVo cells at 0.16 to 10 uM incubated for 72 hrs by Western blot analysis; assay type: cell-based; conditions: dose 0.16-10 µM
T1 sequence (whole entry): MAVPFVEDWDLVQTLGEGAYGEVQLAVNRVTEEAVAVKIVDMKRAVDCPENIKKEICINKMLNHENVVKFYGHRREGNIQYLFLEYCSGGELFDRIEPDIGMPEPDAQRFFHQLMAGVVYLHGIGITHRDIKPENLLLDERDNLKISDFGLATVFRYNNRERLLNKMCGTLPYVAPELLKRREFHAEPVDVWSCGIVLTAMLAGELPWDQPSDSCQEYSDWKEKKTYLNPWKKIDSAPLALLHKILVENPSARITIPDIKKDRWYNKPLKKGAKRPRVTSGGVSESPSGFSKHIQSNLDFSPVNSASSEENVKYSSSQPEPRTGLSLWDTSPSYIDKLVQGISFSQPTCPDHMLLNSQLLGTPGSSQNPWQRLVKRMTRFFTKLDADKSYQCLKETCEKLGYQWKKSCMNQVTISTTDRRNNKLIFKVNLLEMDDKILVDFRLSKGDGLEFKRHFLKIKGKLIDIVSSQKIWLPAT

[7] = molecular target: T2, Protein cereblon/Serine/threonine-protein kinase ATR (Homo sapiens, UniProt Q13535+Q96SW2); experiment: PROTAC activity at CRBN/ATR in human LoVo cells assessed as induction of ATR degradation at 2.5 uM preincubated with MLN4924 for 4 hrs followed by compound addition and measured after 48 hrs by Western blot analysis; assay type: cell-based
[8] = AUC (0 to t) in BALB/c nude mouse xenografted with human LoVo cells at 25 mg/kg, ip administered as single dose and measured after 12 hrs by LC-MS/MS analysis; assay type: ADME, organism-based; conditions: in vivo
LoVo [9] = experiment: Downregulation of total ATR protein level in human LoVo cells incubated for 72 hrs by Western blot analysis; assay type: functional, cell-based; conditions: dose 0.16-10 µM
[10] = molecular target: Phosphatidylinositol 4,5-bisphosphate 3-kinase catalytic subunit alpha isoform (Homo sapiens) (UniProt P42336); experiment: Induction of PI3K-alpha degradation in human LoVo cells at 0.16 to 10 uM incubated for 72 hrs by Western blot analysis; assay type: cell-based; conditions: dose 0.16-10 µM
[11] = molecular target: T2, Protein cereblon/Serine/threonine-protein kinase ATR; experiment: PROTAC activity at CRBN/ATR in human LoVo cells assessed as induction of ATR degradation at 2.5 uM by Western blot analysis; assay type: cell-based; conditions: time 6-72 hrs, TDE = time-dependent effect
[12] = molecular target: T2, Protein cereblon/Serine/threonine-protein kinase ATR; experiment: PROTAC activity at CRBN/ATR in human LoVo cells assessed as induction of ATR degradation measured after 72 hrs by Western blot analysis; assay type: cell-based
[13] = MRT (0 to t) in BALB/c nude mouse xenografted with human LoVo cells at 25 mg/kg, ip administered as single dose and measured after 12 hrs by LC-MS/MS analysis; assay type: ADME, organism-based; conditions: in vivo
[14] = molecular target: T2, Protein cereblon/Serine/threonine-protein kinase ATR; experiment: In vivo PROTAC activity at CRBN/ATR in BALB/c nude mouse xenografted with human LoVo cells assessed as reduction in ATR phosphorylation at Thr1989 residue administered intraperitoneally once daily for 15 days by Western blot analysis; assay type: functional, organism-based; conditions: dose 12.5-25 mg/kg, route ip, time 15.0 day
LoVo [15] = experiment: Cell cycle arrest in human LoVo cells assessed as accumulation of cells at G2/M phase at 1 uM incubated for 72 hrs by PI staining based flow cytometric analysis (reference value: 22.2 %); assay type: functional
[16] = molecular target: T2, Protein cereblon/Serine/threonine-protein kinase ATR; experiment: In vivo PROTAC activity at CRBN/ATR in BALB/c nude mouse xenografted with human LoVo cells assessed as reduction in ATR protein level administered intraperitoneally once daily for 15 days by Western blot analysis; assay type: functional, organism-based; conditions: dose 12.5-25 mg/kg, route ip, time 15.0 day
LoVo [17] = experiment: Cell cycle arrest in human LoVo cells assessed as accumulation of cells at G2/M phase at 0.5 uM incubated for 72 hrs by PI staining based flow cytometric analysis (reference value: 22.2 %); assay type: functional
LoVo [18] = experiment: Cell cycle arrest in human LoVo cells assessed as accumulation of cells at G0/G1 phase at 1 uM incubated for 72 hrs by PI staining based flow cytometric analysis (reference value: 52.3 %); assay type: functional
[19] = Tmax in BALB/c nude mouse xenografted with human LoVo cells at 25 mg/kg, ip administered as single dose and measured after 12 hrs by LC-MS/MS analysis; assay type: ADME, organism-based; conditions: in vivo
LoVo [20] = experiment: Induction of LBP degradation in human LoVo cells at 1 uM incubated for 24 hrs by global proteomic profiling analysis; assay type: cell-based
[21] = Half-life in BALB/c nude mouse xenografted with human LoVo cells at 25 mg/kg, ip administered as single dose and measured after 12 hrs by LC-MS/MS analysis; assay type: ADME, organism-based; conditions: in vivo
[22] = molecular target: T2, Protein cereblon/Serine/threonine-protein kinase ATR; experiment: PROTAC activity at CRBN/ATR in human LoVo cells assessed as induction of ATR degradation by measuring maximal efficacy after 72 hrs by Western blot analysis relative to control; assay type: cell-based
[23] = molecular target: T2, Protein cereblon/Serine/threonine-protein kinase ATR; experiment: PROTAC activity at CRBN/ATR in human LoVo cells assessed as induction of ATR degradation at 2.5 uM preincubated with MG132 for 4 hrs followed by compound addition and measured after 48 hrs by Western blot analysis; assay type: cell-based
[24] = molecular target: T2, Protein cereblon/Serine/threonine-protein kinase ATR; experiment: PROTAC activity at CRBN/ATR in human LoVo cells assessed as induction of ATR degradation at 2.5 uM preincubated with AZD6738 for 4 hrs followed by compound addition and measured after 48 hrs by Western blot analysis; assay type: cell-based
[25] = Free drug concentration in tumor of BALB/c nude mouse xenografted with human LoVo cells at 25 mg/kg, ip administered as single dose and measured after 12 hrs by LC-MS/MS analysis; assay type: ADME, organism-based; conditions: in vivo
NCM460 = experiment: Cytotoxicity against human NCM460 cells; assay type: toxicity, cell-based
[26] = molecular target: T2, Protein cereblon/Serine/threonine-protein kinase ATR; experiment: PROTAC activity at CRBN/ATR in human LoVo cells assessed as induction of ATR degradation at 1 uM incubated for 24 hrs by global proteomic profiling analysis; assay type: cell-based

C[C@@H]1COCCN1c1cc(C2([S@@](C)(=O)=NC(=O)CCc3cn(CCCCCCCC(=O)Nc4cccc5c4C(=O)N(C4CCC(=O)NC4=O)C5=O)nn3)CC2)nc(-c2ccnc3[nH]ccc23)n1 (stereo partly drawn)
Activity (LoVo [1]): 57.9% | Activity (LoVo [2]): 45.62% | Activity [3]: Non-Toxic | inhibition [4]: Dose-Dependent Effect | inhibition in vivo at 12.5 mg/kg (LoVo [5]): 60.6% | Activity [6]: inactive | Activity [7]: inactive | AUC(0-t) at 12 h [8]: 4550 ng·h/mL | Activity (LoVo [9]): Dose-Dependent Effect | Activity [10]: inactive | Activity [11]: Tde | Activity [12]: Dose-Dependent Effect | DC50 [12]: 530 nM | MRT last at 12 h [13]: 4.21 h | Activity [14]: Dose-Dependent Effect | Activity (LoVo [15]): 13.4% | Activity [16]: Dose-Dependent Effect | Activity (LoVo [17]): 19.7% | Activity (LoVo [18]): 67.3% | Tmax [19]: 2 h | Activity (LoVo [20]): Active | half-life [21]: 4.75 h | Emax [22]: 84.3% | Activity [23]: inactive | Activity [24]: inactive | Drug uptake(free) [25]: ~ 6 uM | Activity (NCM460): Non-Toxic | Activity [26]: Active
